Laboratory results reported in US20090143279A1 (priority 2007, published 2009).
Like-named read-outs stand apart in the source and are kept apart here.

Columns and labels:
[1] = system: mitochondrial membrane potential; type: cell-based, mouse; details: for ΔΨm (composite Z-score): normalized score vs mock-treated (DMSO) wells
[2] = system: reactive oxygen species; type: cell-based, mouse; details: for ROS (composite Z-score): normalized score vs mock-treated (DMSO) wells
[3] = system: OXPHOS gene expression; type: cell-based, mouse; details: for GE-HTS (composite Z-score): normalized score vs mock-treated (DMSO) wells
[4] = system: nuOXPHOS transcripts; type: cell-based, mouse; details: for nucOX (composite Z-score): normalized score vs mock-treated (DMSO) wells
[5] = system: mtOXPHOS transcripts; type: cell-based, mouse; details: for mitoOX (composite Z-score): normalized score vs mock-treated (DMSO) wells
[6] = system: cytochrome c; type: cell-based, mouse; details: for cyt c (composite Z-score): normalized score vs mock-treated (DMSO) wells
[7] = system: C2C12 myotubes; details: for Viability (composite Z-score): normalized score vs mock-treated (DMSO) wells
[8] = system: cellular dehydrogenase activity; details: for MTT (composite Z-score): normalized score vs mock-treated (DMSO) wells
[9] = composite Z-score vs DMSO, Conc 20 μM
[10] = Table 7, C2C12 myotubes, 48 h, composite Z-score
[11] = composite Z-score vs mock-treated (DMSO) wells, Conc 20 μM
[12] = composite Z-score vs mock-treated (DMSO) wells, concentration of each compound in μM
[13] = normalized composite Z-score vs mock-treated (DMSO) wells, Conc 20 μM
[14] = composite Z-score vs DMSO wells, Conc 20 μM

With `COc1cc2c(cc1OC)[C@@H]1C(=O)c3ccc4c(c3O[C@@H]1CO2)CC(C(C)C)O4` (some centres unmarked) [dihydrorotenone, reference compound] the ΔΨm [1, 9] was −0.314, the ROS [2, 9] was −0.682 and the GE-HTS [3, 9] was −2.179. For the same compound, the nucOX [4, 9] was −2.212, the mitoOX [5, 9] was −1.732 and the cyt c [6, 9] was −3.153. It also gave a Viability [7, 9] of 0.390 and an MTT [8, 9] of −4.020.

With `CC(=O)O[C@@H]1c2c(ccc3ccc(=O)oc23)OC(C)(C)[C@@H]1OC(=O)CC(C)C` [dihydrosamidin, reference compound] the “ΔΨm (composite Z-score)” value ([1]; Conc 20 μM) was 0.199, the “ROS (composite Z-score)” value ([2]; Conc 20 μM) was 4.794 and the “GE-HTS (composite Z-score)” value ([3]; Conc 20 μM) was 1.854. The “nucOX (composite Z-score)” value ([4]; Conc 20 μM) was 1.843, the “nucOXPHOS Z” value [4, 10] was 1.84 and the “mitoOX (composite Z-score)” value ([5]; Conc 20 μM) was 1.477. For the same compound, the “mito-OXPHOS Z” value [5, 10] was 1.48, the “cyt c (composite Z-score)” value ([6]; Conc 20 μM) was 0.147 and the “Viability (composite Z-score)” value ([7]; Conc 20 μM) was 0.476. For the same compound, the “MTT (composite Z-score)” value ([8]; Conc 20 μM) was −0.826.

`Cc1cc(=O)c2c(O)c3c(cc2o1)OC(C)(C)CC3` [dihydrospatheliachromene] showed a ΔΨm [1, 11] of −0.174, an ROS [2, 11] of 1.483 and a GE-HTS [3, 11] of −0.666. The nucOX [4, 11] was −0.620, the mitoOX [5, 11] was −0.569 and the cyt c [6, 11] was 0.068. The Viability [7, 11] was −0.538 and the MTT [8, 11] was −1.802.

`CC(=O)[C@H]1CC[C@H]2[C@@H]3CCC4C[C@H](O)CC[C@]4(C)[C@H]3C[C@H](O)[C@]12C` (stereo partly drawn) [dihydroxy (3alpha,12alpha)pregnan-20-one] gave a ΔΨm [1, 11] of −0.540, an ROS [2, 11] of 0.206 and a GE-HTS [3, 11] of −0.928. For the same compound, the nucOX [4, 11] was −0.972, the mitoOX [5, 11] was −0.621 and the cyt c [6, 11] was −0.685. It also gave a Viability [7, 11] of −0.622 and an MTT [8, 11] of −1.160.

With `COc1ccc(/C=C/C(=O)O)cc1OC` [dimethylcaffeic acid] the “ΔΨm (composite Z-score)” value ([1]; Conc 20 μM) was −0.061, the “ROS (composite Z-score)” value ([2]; Conc 20 μM) was −0.142 and the “GE-HTS (composite Z-score)” value ([3]; Conc 20 μM) was −0.924. For the same compound, the “nucOX (composite Z-score)” value ([4]; Conc 20 μM) was −0.838, the “mitoOX (composite Z-score)” value ([5]; Conc 20 μM) was −0.885 and the “cyt c (composite Z-score)” value ([6]; Conc 20 μM) was 0.804. The “Viability (composite Z-score)” value ([7]; Conc 20 μM) was 0.147 and the “MTT (composite Z-score)” value ([8]; Conc 20 μM) was −1.206.

Compound `COc1ccc(-c2cc(=O)c3c(OC)cc(OC)c(-c4cc(-c5cc(=O)c6c(OC)cc(OC)cc6o5)ccc4OC)c3o2)cc1` [dioonflavone] has a ΔΨm [1, 12] of 0.208, an ROS [2, 12] of 0.650 and a GE-HTS [3, 12] of −0.471. The nucOX [4, 12] was −0.204, the mitoOX [5, 12] was −0.969 and the cyt c [6, 12] was 0.605. For the same compound, the Viability [7, 12] was −0.003 and the MTT [8, 12] was −0.744.

Compound `C[C@@H]1CC[C@@]2(OC1)O[C@H]1C[C@H]3[C@@H]4CC=C5C[C@@H](O)CC[C@]5(C)[C@H]4CC[C@]3(C)[C@H]1[C@@H]2C` [diosgenin] has a ΔΨm [1, 9] of −0.353, an ROS [2, 9] of 0.048 and a GE-HTS [3, 9] of −0.245. For the same compound, the nucOX [4, 9] was −0.445, the mitoOX [5, 9] was 0.146 and the cyt c [6, 9] was −0.679. For the same compound, the Viability [7, 9] was −0.044 and the MTT [8, 9] was −1.597.

`COc1ccc(-c2cc(=O)c3c(O)cc(O)cc3o2)cc1O` [diosmetin] was tested, and the ΔΨm [1, 13] was −2.701, the ROS [2, 13] was −0.014 and the GE-HTS [3, 13] was −0.892. The nucOX [4, 13] was −1.158, the mitoOX [5, 13] was −0.134 and the cyt c [6, 13] was −0.666. The Viability [7, 13] was 0.174 and the MTT [8, 13] was −1.922.

For `COc1ccc(-c2cc(=O)c3c(O)cc(O[C@@H]4O[C@H](CO[C@@H]5O[C@@H](C)[C@H](O)[C@@H](O)[C@H]5O)[C@@H](O)[C@H](O)[C@H]4O)cc3o2)cc1O` [diosmin], the ΔΨm [1, 14] was −0.501, the ROS [2, 14] was 0.321 and the GE-HTS [3, 14] was −1.223. For the same compound, the nucOX [4, 14] was −1.150, the mitoOX [5, 14] was −1.147 and the cyt c [6, 14] was −0.433. For the same compound, the Viability [7, 14] was −0.712 and the MTT [8, 14] was −0.708.

`CC(=O)Oc1ccccc1C(=O)Oc1ccccc1C(=O)O` [diplosalsalate] was tested, and the “ΔΨm (composite Z-score)” value ([1]; Conc 20 μM) was 0.008, the “ROS (composite Z-score)” value ([2]; Conc 20 μM) was 0.306 and the “GE-HTS (composite Z-score)” value ([3]; Conc 20 μM) was −1.001. For the same compound, the “nucOX (composite Z-score)” value ([4]; Conc 20 μM) was −0.994, the “mitoOX (composite Z-score)” value ([5]; Conc 20 μM) was −0.766 and the “cyt c (composite Z-score)” value ([6]; Conc 20 μM) was 0.787. For the same compound, the “Viability (composite Z-score)” value ([7]; Conc 20 μM) was −0.204 and the “MTT (composite Z-score)” value ([8]; Conc 20 μM) was −0.860.

`CC[C@H](C)[C@H](N)C(=O)N1CCC[C@H]1C(=O)N[C@H](C(=O)O)[C@@H](C)CC` [diprotin A] was tested, and the ΔΨm [1, 12] was 0.357, the ROS [2, 12] was 0.300 and the GE-HTS [3, 12] was 0.099. For the same compound, the nucOX [4, 12] was −0.102, the mitoOX [5, 12] was 0.490 and the cyt c [6, 12] was −0.975. The Viability [7, 12] was −0.788 and the MTT [8, 12] was −1.068.

With `CC(=O)Oc1cccc(C(=O)O)c1OC(C)=O` [dipyrocetyl] the “ΔΨm (composite Z-score)” value ([1]; Conc 20 μM) was −0.363, the “ROS (composite Z-score)” value ([2]; Conc 20 μM) was 1.260 and the “GE-HTS (composite Z-score)” value ([3]; Conc 20 μM) was −0.311. For the same compound, the “nucOX (composite Z-score)” value ([4]; Conc 20 μM) was −0.242, the “mitoOX (composite Z-score)” value ([5]; Conc 20 μM) was −0.341 and the “cyt c (composite Z-score)” value ([6]; Conc 20 μM) was 0.865. The “Viability (composite Z-score)” value ([7]; Conc 20 μM) was 0.452 and the “MTT (composite Z-score)” value ([8]; Conc 20 μM) was −1.355.
